What was measured:
RW478-16 = experiment: Additional testing of Group 12 herbicides with other HPPD inhibitor herbicides (Table 7), Colby; format: in vivo, Amaranthus sp. (AMAPA); conditions: for Observed Product 1-(Group 12): Group 12 herbicide alone 15.8 g/ha
Text: (§1) When active ingredients are combined, the activity to be expected (E) for any given active ingredient combination obeys the so-called Colby Formula and can be calculated as follows (Colby, S. R., Calculating synergistic and antagonistic responses of herbicide combination, Weeds, Vol. 15, pages 20-22; 1967): • ppm=milligrams of active ingredient (a.i.) per liter • X=% action by first active ingredient using p ppm of the active ingredient • Y=% action by second active ingredient using q ppm of the active ingredient.
(§2) According to Colby, the expected action of active ingredients A+B using p+q ppm of active ingredient is represented by the following formula:
(§3) [formula] • If the action actually observed (O) is greater than the expected action E then the action of the combination is super-additive, i.e. there is a synergistic effect. In mathematical terms, synergism corresponds to a positive value for the difference of (O-E). In the case of purely complementary addition of activities (expected activity), said difference (O-E) is zero. A negative value of said difference (O-E) signals a loss of activity compared to the expected activity.
(§4) Additional testing within the scope of disclosure was performed using other HPPD inhibitor herbicides and Group 12 herbicides.

S129 = experiment: as above; format: in vivo, Amaranthus sp. (AMAPA); conditions: for Observed Product 1-(Group 12): Group 12 herbicide alone 15.8 g/ha
Text: as §1, §2, §3, §4

Group 27 resistant AMAPA = experiment: Greenhouse preemergence trial, % control at 29 days after application; format: in vivo, Palmer amaranth
HPPD resistant AMATA = experiment: Field trial of dent corn, control 34 days after application; format: in vivo, common waterhemp, Amaranthus rudis Sauer; conditions: 70 g ai/ha diflufenican
Description: Diflufenican, was already very active on HPPD-R AMAPA providing 98% control alone at 35 g ai/ha, the rate used in mixture with MST+BIR making it difficult to determine if there was synergy between the herbicides. Nevertheless, additional data regarding diflufenican and MST+BIR was obtained during field trials of dent corn.
During the field trial, HPPD resistant AMATA (common waterhemp, Amaranthus rudis Sauer) was tested as follows: • 1) 70 g ai/ha diflufenican—providing 55% control • 2) 202 g ai/ha MST+50 g ai/ha BIR—providing 30% control • 3) 70 g ai/ha diflufenican+202 g ai/ha MST+50 g ai/ha BIR—providing 92% control.
The results were collected 34 days after application. The inclusion of a Group 12 herbicide with at least one HPPD-inhibitor, specifically MST+BIR, provided surprising control of HPPD-resistant weeds.

[1] = test system: HPPD-resistant (RW478-16) Amaranthus sp. (AMAPA); experiment: Pre-emergent synergy test of DFF with MST + BIR (Tables 1-3), Colby; format: in vivo; conditions: pre-emergence, 528 h, 22 days after treatment, read-out: Activity (% control) (RW478-16)
Text: as §1, §2, §3
(§5) Synergy was further tested for in sensitive (S-129) and HPPD-resistant (RW478-16) Amaranthus sp. (AMAPA) in pre-emergent tests according to the treatments in Table 1 below.
(§6) Dose responses rates were calculated for the treatments at 22 days after treatment which are provided in FIGS. 3 and 4, and further summarized in Table 2.

[2] = test system: sensitive (S-129) Amaranthus sp. (AMAPA); experiment: as above; format: in vivo; conditions: pre-emergence, 528 h, 22 days after treatment, read-out: Activity (% control) (S-129)
Text: as §1, §2, §3, §5, §6

[3] = test system: HPPD-resistant (RW478-16) Amaranthus sp. (AMAPA); experiment: Pre-emergent synergy test of PIC with MST + BIR (Tables 4-6), Colby; format: in vivo; conditions: 22 days after treatment
Text: as §1, §2, §3, §5
(§7) Similar tests were performed with picolinafen (PIC) and mesotrione+bicyclopyrone (MST+BIR), as summarized by Table 4.

[4] = test system: sensitive (S-129) Amaranthus sp. (AMAPA); experiment: as above; format: in vivo; conditions: 22 days after treatment
Text: as §1, §2, §3, §5, §7

[5] = (IFT 12.3) g/ha without Group 12
[6] = (MST 25.3) g/ha without Group 12
[7] = (BIR 6.3) g/ha without Group 12

Molecule: CCC(Oc1ccc(F)c(C(F)(F)F)c1)C(=O)NCc1ccccc1 (centres unmarked) [BFB, beflubutamid]
- Observed Product 1-(Group 12) (RW478-16): 37%
- Observed Product 1-(Group 12) (S129): 67%

Molecule: O=C(Nc1ccc(F)cc1F)c1cccnc1Oc1cccc(C(F)(F)F)c1 [DFF, diflufenican]
- % control of HPPD-R AMAPA (Group 27 resistant AMAPA; alone at 35 g ai/ha): 98%
- % control of HPPD resistant AMATA (HPPD resistant AMATA): 55%
- inhibition at 1.58 g/ha ([1]; DFF 1.58 g ai/ha alone): 77%
- inhibition at 2.11 g/ha ([1]; DFF 2.11 g ai/ha alone): 53%
- inhibition at 3.16 g/ha ([1]; DFF 3.16 g ai/ha alone): 45%
- inhibition at 7.9 g/ha ([1]; DFF 7.9 g ai/ha alone): 22%
- inhibition at 15.8 g/ha ([1]; DFF 15.8 g ai/ha alone): 18%
- inhibition at 31.6 g/ha ([1]; DFF 31.6 g ai/ha alone): 3%
- inhibition at 1.58 g/ha ([2]; DFF 1.58 g ai/ha alone): 100%
- inhibition at 2.11 g/ha ([2]; DFF 2.11 g ai/ha alone): 94%
- inhibition at 3.16 g/ha ([2]; DFF 3.16 g ai/ha alone): 72%
- inhibition at 7.9 g/ha ([2]; DFF 7.9 g ai/ha alone): 23%
- inhibition at 15.8 g/ha ([2]; DFF 15.8 g ai/ha alone): 10%
- inhibition at 31.6 g/ha ([2]; DFF 31.6 g ai/ha alone): 13%
- Observed Product 1-(Group 12) (RW478-16): 70%
- Observed Product 1-(Group 12) (S129): 99%

Molecule: O=C1C(Cl)C(CCl)CN1c1cccc(C(F)(F)F)c1 (centres unmarked) [FLU, flurochloridone]
- Observed Product 1-(Group 12) (RW478-16): 27%
- Observed Product 1-(Group 12) (S129): 57%

Molecule: CS(=O)(=O)c1cc(C(F)(F)F)ccc1C(=O)c1cnoc1C1CC1 [IFT, isoxaflutole]
- Observed Product 2-(HPPDs) (RW478-16; [5]): 37%
- Observed Product 2-(HPPDs) (S129; [5]): 98%

Molecule: CS(=O)(=O)c1ccc(C(=O)C2C(=O)CCCC2=O)c([N+](=O)[O-])c1 [MST, mesotrione]
- Observed Product 2-(HPPDs) (RW478-16; [6]): 28%
- Observed Product 2-(HPPDs) (S129; [6]): 100%

Molecule: O=C(Nc1ccc(F)cc1)c1cccc(Oc2cccc(C(F)(F)F)c2)n1 [PIC, picolinafen]
- control of HPPD-Resistant AMAPA (Group 27 resistant AMAPA; Picolinafen 35 g ai/ha alone): did not adequately control
- Activity (% control) (RW478-16) ([3]; PIC 1.58 g ai/ha alone): 0%
- Activity (% control) (RW478-16) ([3]; PIC 2.11 g ai/ha alone): 7%
- Activity (% control) (RW478-16) ([3]; PIC 3.16 g ai/ha alone): 10%
- Activity (% control) (RW478-16) ([3]; PIC 7.9 g ai/ha alone): 10%
- Activity (% control) (RW478-16) ([3]; PIC 15.8 g ai/ha alone): 40%
- Activity (% control) (RW478-16) ([3]; PIC 31.6 g ai/ha alone): 53%
- Activity (% control) (S-129) ([4]; PIC 1.58 g ai/ha alone): 10%
- Activity (% control) (S-129) ([4]; PIC 2.11 g ai/ha alone): 22%
- Activity (% control) (S-129) ([4]; PIC 3.16 g ai/ha alone): 17%
- Activity (% control) (S-129) ([4]; PIC 7.9 g ai/ha alone): 30%
- Activity (% control) (S-129) ([4]; PIC 15.8 g ai/ha alone): 53%
- Activity (% control) (S-129) ([4]; PIC 31.6 g ai/ha alone): 72%
- Observed Product 1-(Group 12) (RW478-16): 28%
- Observed Product 1-(Group 12) (S129): 77%

Molecule: bicyclopyrone [BIR]
- Observed Product 2-(HPPDs) (RW478-16; [7]): 20%
- Observed Product 2-(HPPDs) (S129; [7]): 57%

From patent publication US20260215422A1, “HERBICIDAL COMPOSITIONS” (SYNGENTA CROP PROTECTION AG, priority 2022, published 2026)
